Key:
[1] = target: T1, OCT2 (Homo sapiens, UniProt O15244); assay: in vitro; conditions: for inhibition at 3 min, 20 µM / inhibition at 3 min, 200 µM: pH 7.3, probe [14C]metformin, 1000 µM; for inhibition at 3 min, 20 µM: % Inhibition of OCT2-dependent MF uptake at 20 µM (mean ± SEM); for inhibition at 3 min, 200 µM: % Inhibition of OCT2-dependent MF uptake at 200 µM (mean ± SEM), test drug 200 µM
Procedure: (§1) For the transport assays HEK cell lines stably transfected with human OCT2 (HEK-OCT2) or the vector only (HEK-VC) were used. The HEK-OCT2 cell line was established and characterized previously. HEK-OCT2 and HEK-VC cells were seeded in poly-D-lysine (Sigma Aldrich, Taufkirchen, Germany) coated 48-well-plates at a density of 1.2 x 10^5 cells/well. […] Uptake was stopped by washing the cells three times with ice-cold uptake buffer. Afterwards, cells were lysed with 5 mM Tris buffer (pH 7.3) containing 0.1% Triton X-100. The intracellular accumulation of radioactivity was determined by liquid scintillation counting (PerkinElmer, Rodgau-Jügesheim, Germany) and protein concentration of each lysate was measured with bicinchonic acid assay (BCA Protein Assay Kit, Thermo Fisher Scientific, Waltham, MA, USA). We performed two to eight experiments each on at least two separate days, i.e., n = 4–16.
Experimental half-maximal inhibitory concentrations (IC50 values) were measured as the substrate uptake in the presence of increasing concentrations of test drugs. These experiments were performed as described above (three experiments each on two separate days, i.e., n = 6). IC50 values were calculated with GraphPad Prism 5.0 (GraphPad Software, San Diego, CA, USA). IC50 was estimated by a sigmoidal inhibition model and was fit to the equation V = V 0 / (1 + (I / IC50 ) ^n ) by nonlinear regression. V is the net uptake in the presence of the inhibitor, V 0 is the net uptake in the absence of the inhibitor, I is the concentration of the inhibitor and n is the slope.

[2] = target: T1, OCT2; assay: Inhibition of OCT2-mediated [3H]MPP+ uptake in HEK-OCT2 cells; conditions: for inhibition at 3 min, 20 µM / inhibition at 3 min, 200 µM: pH 7.3, probe [3H]MPP+, 50 µM
Procedure: as §1

[3] = test drug 20 µM, MPP+ 50 μM, 3 min, net uptake HEK-OCT2 minus HEK-VC
[4] = test drug 200 µM, MPP+ 50 μM, 3 min, net uptake HEK-OCT2 minus HEK-VC
[5] = human, test drug 20 µM, metformin 1000 μM, 3 min, net uptake HEK-OCT2 minus HEK-VC
[6] = human, metformin 1000 μM, 3 min, net uptake HEK-OCT2 minus HEK-VC

T1 sequence (O15244 whole entry): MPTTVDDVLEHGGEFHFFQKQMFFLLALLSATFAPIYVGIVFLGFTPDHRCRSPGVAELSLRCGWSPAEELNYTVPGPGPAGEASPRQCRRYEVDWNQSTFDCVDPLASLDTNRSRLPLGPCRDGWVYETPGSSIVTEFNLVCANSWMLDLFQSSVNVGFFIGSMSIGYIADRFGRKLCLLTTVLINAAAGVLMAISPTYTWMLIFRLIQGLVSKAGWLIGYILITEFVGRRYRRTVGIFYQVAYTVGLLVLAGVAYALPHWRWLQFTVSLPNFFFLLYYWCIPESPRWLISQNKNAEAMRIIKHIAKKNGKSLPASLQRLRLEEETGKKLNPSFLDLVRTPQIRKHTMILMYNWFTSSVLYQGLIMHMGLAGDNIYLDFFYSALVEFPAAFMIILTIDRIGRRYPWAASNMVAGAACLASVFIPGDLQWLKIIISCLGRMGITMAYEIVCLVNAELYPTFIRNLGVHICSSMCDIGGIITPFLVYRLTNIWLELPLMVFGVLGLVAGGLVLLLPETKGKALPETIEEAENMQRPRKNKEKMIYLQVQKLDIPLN

SMILES | % Inhibition of OCT2-dependent MF uptake at 20 µM (mean ± SEM) ([1]; human, pH 7.3) | % Inhibition of OCT2-dependent MF uptake at 200 µM (mean ± SEM) ([1]; human, pH 7.3) | % Inhibition of OCT2-dependent MPP+ uptake at 20 µM (mean ± SEM) [2, 3] [%] | % Inhibition of OCT2-dependent MPP+ uptake at 200 µM (mean ± SEM) [2, 4] [%] | % Inhibition of OCT2-dependent MPP+ uptake at 20 µM (mean ± SEM) ([2]; human, pH 7.3) | % Inhibition of OCT2-dependent MPP+ uptake at 200 µM (mean ± SEM) ([2]; human, pH 7.3) | inhibition at 3 min, 20 µM [1, 5] [%] | inhibition at 3 min, 200 µM [1, 6] [%] | inhibition at 3 min, 20 µM ([2]; human) [%] | inhibition at 3 min, 200 µM ([2]; human) [%] | % Inhibition of OCT2-dependent MF uptake at 20 µM (mean ± SEM) ([1]; test drug 20 µM, metformin 1000 μM, 3 min, net uptake HEK-OCT2 minus HEK-VC) [%]
CC(C)NCC(O)COc1ccc(COCCOC(C)C)cc1 (centres unmarked) [Bisoprolol] | 57.2 ± 4.0% | 75.8 ± 4.5% | -16.1 ± 2.2 | 11.8 ± 5.5 | – | – | – | – | – | – | –
O=C1CN=C(c2ccccn2)c2cc(Br)ccc2N1 [Bromazepam] | 27.6 ± 2.6% | 77.9 ± 1.4% | – | – | -16.3 ± 9.0% | 14.7 ± 8.3% | – | – | – | – | –
CCOc1nc2cccc(C(=O)O)c2n1Cc1ccc(-c2ccccc2-c2nnn[nH]2)cc1 [Candesartan] | – | – | – | – | – | – | 48 ± 3.7 | 69.7 ± 2.7 | 0.9 ± 0.1 | -2.4 ± 4 | –
C[C@H](CS)C(=O)N1CCC[C@H]1C(=O)O [Captopril] | -21.6 ± 19.5% | -59.0 ± 0.9% | 3.8 ± 5.7 | 10.2 ± 6.8 | – | – | – | – | – | – | –
NC(=O)N1c2ccccc2C=Cc2ccccc21 [Carbamazepine] | 0.2 ± 3.8% | 83.8 ± 1.2% | -51.4 ± 9.2 | -2.1 ± 4.4 | – | – | – | – | – | – | –
COc1ccccc1OCCNCC(O)COc1cccc2[nH]c3ccccc3c12 (centres unmarked) [Carvedilol] | 84.3 ± 5.2% | 98.6 ± 0.5% | 32.2 ± 3.7 | 88.5 ± 1.5 | – | – | – | – | – | – | –
CO/N=C(\C(=O)N[C@@H]1C(=O)N2C(C(=O)O)=C(COC(N)=O)CS[C@H]12)c1ccco1 [Cefuroxime] | 29.9 ± 9.7% | 50.3 ± 11.6% | -10.5 ± 7.0 | -30.8 ± 12.9 | – | – | – | – | – | – | –
CN(C)CC/C=C1/c2ccccc2Sc2ccc(Cl)cc21 [Chlorprothixene] | 66.8 ± 7.9% | 98.4 ± 0.9% | 29.9 ± 7.5 | 91.7 ± 2.2 | – | – | – | – | – | – | –
C=C1CC[C@H](O)C/C1=C/C=C1\CCC[C@]2(C)[C@@H]([C@H](C)CCCC(C)C)CC[C@@H]12 [Cholecalciferol] | 2.8 ± 15.7 | 17.1 ± 5.0 | 6.8 ± 5.1 | 10.4 ± 6.1 | – | – | – | – | – | – | –
CN(C)CCCC1(c2ccc(F)cc2)OCc2cc(C#N)ccc21 (centres unmarked) [Citalopram] | 66.6 ± 7.9 | 78.9 ± 8.4 | 40.0 ± 9.9 | 75.2 ± 9.7 | – | – | – | – | – | – | –
Cc1ncsc1CCCl [Clomethiazole] | -9.2 ± 6.8 | 28.7 ± 3.9 | -6.7 ± 9.2 | -147.3 ± 23.7 | – | – | – | – | – | – | –
COC(=O)[C@H](c1ccccc1Cl)N1CCc2sccc2C1 [Clopidogrel] | 70.0 ± 2.0 | 92.8 ± 5.4 | – | – | 12.5 ± 0.8 | 41.5 ± 4.0 | – | – | – | – | –
CN1CCN(C2=Nc3cc(Cl)ccc3Nc3ccccc32)CC1 [Clozapine] | 71.4 ± 1.6 | 98.7 ± 0.7 | 43.4 ± 4.7 | 84.1 ± 2.5 | – | – | – | – | – | – | –
O=C(O)Cc1ccccc1Nc1c(Cl)cccc1Cl [Diclofenac] | 14.3 ± 8.8 | 59.1 ± 6.5 | 8.8 ± 8.9 | 24.0 ± 4.0 | – | – | – | – | – | – | –
C[C@H]1O[C@@H](O[C@H]2[C@@H](O)C[C@H](O[C@H]3[C@@H](O)C[C@H](O[C@H]4CC[C@@]5(C)[C@H](CC[C@@H]6[C@@H]5CC[C@]5(C)[C@@H](C7=CC(=O)OC7)CC[C@]65O)C4)O[C@@H]3C)O[C@@H]2C)C[C@H](O)[C@@H]1O [Digitoxin] | 28.7 ± 7.9 | 32.8 ± 2.9 | -32.6 ± 3.8 | -32.4 ± 8.5 | – | – | – | – | – | – | –
COc1cc2nc(N3CCN(C(=O)C4COc5ccccc5O4)CC3)nc(N)c2cc1OC (centres unmarked) [Doxazosin] | 48.0 ± 5.5 | 92.1 ± 1.0 | 26.7 ± 10.3 | 45.8 ± 14.0 | – | – | – | – | – | – | –
C[C@H]1c2cccc(O)c2C(=O)C2=C(O)[C@]3(O)C(=O)C(C(N)=O)=C(O)[C@@H](N(C)C)[C@@H]3[C@@H](O)[C@@H]21 [Doxycycline] | -21.8 ± 1.9 | 1.9 ± 9.1 | -12.9 ± 13.1 | -16.6 ± 11.7 | – | – | – | – | – | – | –
C[C@]12CCC(=O)C=C1[C@@H]1C[C@@H]1[C@H]1[C@@H]3[C@@H]4C[C@@H]4[C@@]4(CCC(=O)O4)[C@@]3(C)CC[C@@H]12 [Drospirenone] | – | – | – | – | – | – | > 85 | 99.1 ± 0.7 | 0 | 42.6 ± 1.4 | 88.0 ± 7.3
CNCC[C@H](Oc1cccc2ccccc12)c1cccs1 [Duloxetine] | 76.5 ± 0.9 | 98.3 ± 0.2 | – | – | 23.3 ± 6.0 | 86.4 ± 5.1 | – | – | – | – | –
CCOC(=O)[C@H](CCc1ccccc1)N[C@@H](C)C(=O)N1CCC[C@H]1C(=O)O [Enalapril] | 7.5 ± 2.3 | 34.2 ± 4.5 | 7.1 ± 7.4 | 20.2 ± 5.6 | – | – | – | – | – | – | –
CN(C)CCC[C@@]1(c2ccc(F)cc2)OCc2cc(C#N)ccc21 [Escitalopram] | 62.6 ± 9.2 | 93.8 ± 3.6 | -26.3 ± 7.9 | 26.0 ± 10.1 | – | – | – | – | – | – | –
C[C@]12CC[C@@H]3c4ccc(O)cc4CC[C@H]3[C@@H]1CC[C@@H]2O [Estradiol] | 57.9 ± 5.4 | 66.6 ± 2.1 | 10.6 ± 4.2 | 19.0 ± 6.5 | – | – | – | – | – | – | –
